SMILES strings stand for the structures.

This note sets out measurements from ChEMBL document CHEMBL3886457, “Ethynyl derivatives” (2016).

This assay addresses Metabotropic glutamate receptor 5 (Homo sapiens, UniProt P41594). The assay can be described thus: Binding Assay: For binding experiments, cDNA encoding human mGlu 5a receptor was transiently transfected into EBNA cells using a procedure described by Schlaeger and Christensen [Cytotechnology 15:1-13 (1998)]. Cell membrane homogenates were stored at -80° C. until the day of assay where upon they were thawed and resuspended and polytronised in 15 mM Tris-HCl, 120 mM NaCl, 100 mM KCl, 25 mM CaCl2, 25 mM MgCl2 binding buffer at pH 7.4 to a final assay concentration of 20 ug protein/well.Saturation isotherms were determined by addition of twelve [3H]MPEP concentrations (0.04-100 nM) to these membranes (in a total volume of 200 ul) for 1 h at 4° C. Competition experiments were performed with a fixed concentration of [3H]MPEP (2 nM) and IC50 values of test compounds evaluated using 11 concentrations (0.3-10,000 nM). Incubations were performed for 1 h at 4° C.At the end of the incubation, membranes were filtered onto unifilter (96-well white microplate with bonded GF/C filter preincubated 1 h in 0.1% PEI in wash buffer, Packard BioScience, Meriden, Conn.) with a Filtermate 96 harvester (Packard BioScience) and washed 3 times with cold 50 mM Tris-HCl, pH 7.4 buffer. Nonspecific binding was measured in the presence of 10 uM MPEP. […].

Chain of Metabotropic glutamate receptor 5 (P41594 whole entry): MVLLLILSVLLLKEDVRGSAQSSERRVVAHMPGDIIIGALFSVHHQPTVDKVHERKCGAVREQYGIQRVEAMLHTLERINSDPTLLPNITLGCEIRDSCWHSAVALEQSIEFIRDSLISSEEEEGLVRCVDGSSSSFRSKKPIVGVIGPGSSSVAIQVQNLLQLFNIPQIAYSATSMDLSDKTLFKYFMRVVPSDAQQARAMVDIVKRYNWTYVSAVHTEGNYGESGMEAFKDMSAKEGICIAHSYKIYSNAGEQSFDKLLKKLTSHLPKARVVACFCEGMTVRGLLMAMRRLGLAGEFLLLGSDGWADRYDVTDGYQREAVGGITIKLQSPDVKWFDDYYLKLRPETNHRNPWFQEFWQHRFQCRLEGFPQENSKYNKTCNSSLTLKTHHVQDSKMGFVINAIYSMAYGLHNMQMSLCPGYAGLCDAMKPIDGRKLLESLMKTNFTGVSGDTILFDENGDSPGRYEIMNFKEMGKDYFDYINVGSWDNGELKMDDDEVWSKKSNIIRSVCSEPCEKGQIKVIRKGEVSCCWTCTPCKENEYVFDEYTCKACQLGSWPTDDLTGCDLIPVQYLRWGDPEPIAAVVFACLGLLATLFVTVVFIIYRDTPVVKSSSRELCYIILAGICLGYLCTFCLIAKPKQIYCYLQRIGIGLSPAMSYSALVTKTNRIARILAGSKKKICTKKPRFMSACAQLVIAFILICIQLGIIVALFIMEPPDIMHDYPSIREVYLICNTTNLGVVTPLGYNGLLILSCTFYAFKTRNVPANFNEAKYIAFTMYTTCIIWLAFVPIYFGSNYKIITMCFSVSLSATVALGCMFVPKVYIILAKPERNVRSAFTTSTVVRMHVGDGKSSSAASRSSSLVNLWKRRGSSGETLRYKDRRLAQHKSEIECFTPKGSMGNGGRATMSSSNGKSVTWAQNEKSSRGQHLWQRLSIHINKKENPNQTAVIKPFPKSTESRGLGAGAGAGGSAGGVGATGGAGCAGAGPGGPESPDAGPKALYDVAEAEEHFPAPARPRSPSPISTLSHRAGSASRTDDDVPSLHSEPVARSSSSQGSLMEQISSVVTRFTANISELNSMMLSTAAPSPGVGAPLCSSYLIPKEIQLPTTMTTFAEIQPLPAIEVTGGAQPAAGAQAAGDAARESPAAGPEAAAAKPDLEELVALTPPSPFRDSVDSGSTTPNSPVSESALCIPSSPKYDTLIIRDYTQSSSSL

What is called Ki is a dissociation constant, usually derived from enzyme kinetics or from competition with a known ligand. For `O=C(c1ccc(C#Cc2cccc(Cl)c2)cn1)N1CCOCC1`, the Ki came to 19 nM.
